Experiment [1] concerns secondary transgenic MEF line (OSM). To be noted: Lyssiotis et al., 2009; cited from earlier work.
The test system of the next experiment is NOD-iPS cells. Briefly: Dox-independent propagation of Dox-dependent NOD-iPS cells in supplemented mESM. To be noted: mESM lacking Dox. The class given is cell-based, mouse (NOD). The source says:
FIGS. 4(A)-4(H) illustrate generation of genetically unmodified germline competent NOD ES cells. (A) Experimental outline for derivation of iPS lines that grow in the presence of small molecules and in the absence of Dox. Representative images of NOD iPS lines growing in mESM supplemented with the indicated small molecules or growth factors. (B) Single-cell cloning efficiency of NOD iPS cells in different growth conditions. WT or NOD-iPS cells grown in mESM and KP were sorted in 96 well plates and cultured in mESM supplemented with small molecules. The number of wells containing Nanog+ colonies was counted after 6 days. Efficiencies were normalized to that of C57B6/129F1-iPS cells (“permissive” controls) plated in mESM and defined as 100%. SD for average efficiencies from 2 experiments are shown. Student test P value compares KP/CH to PD/CH mESM conditions for NOD iPS cells. (C) Expansion of day E3.5 ICM derived NOD ES cells in the presence of KP, KP/CH or PD/CH and derivation of stable ES lines. Images of initial colonies observed at passage 2 after embryo dissociation are shown together with representative images at later passages. (D) Karyotype of NOD ES lines. (E) Immunostaining of NOD ES lines for pluripotency markers. Inhibitors used during cell line derivation and propagation are indicated. (F) Chimerism in adult mice generated from the indicated cell lines is evident by the presence of agouti (brown) and albino coat color originating from the NOD background. […] (G) Real-Time PCR analysis for endogenous expressed Oct4, c-Myc and Klf4 genes in NOD iPS and ES cells grown in the indicated conditions. Relative expression levels are normalized to levels detected in control 129 ES cells. (H) Southern analysis indicating correct targeting of the endogenous Nanog locus in NOD ES cells with Nanog-GFP knock-in targeting construct.
Small molecules have been identified to replace some of the reprogramming factors in iPS derivation (Huangfu et al., 2008; Shi et al., 2008). […]

The subject of the next experiment is NOD ES cells. Briefly: Blastocyst injection (2N) and chimera generation from NOD ES lines. The class given is in vivo, mouse. To be noted: NOD ES line derived and propagated with the inhibitors; 2N injections. Here is the method: Diploid B6D2F2 blastocysts (94-98 h after hCG injection) were placed in a drop of M2 medium under mineral oil. A flat-tip microinjection pipette with an internal diameter of 16 μm was used for cell injection using a Piezo micromanipulator (Primetech, Japan). About 10 cells were injected into the blastoceol cavity. After injection, the embryos were cultured in KSOM medium and placed in a 37° C. humidified CO2 chamber until transferred to recipient females. Ten to fifteen injected blastocysts were transferred to each uterine horn of 2.5 days post coitum pseudo-pregnant B6D2F1 females. For teratoma generation, 2*106 cells were injected subcutaneously into both flanks of recipient SCID mice, and tumors were harvested for sectioning 3-6 weeks after initial injection. […] were collagenased and manually dissociated into small pieces and injected subcutaneously in to immuno deficient mice.

A further experiment has as its system 129 EpiSCs. Nature of the experiment: Conversion of EpiSCs into ICM-like iPS cells. The class given is cell-based, mouse. Conditions: medium (mESM) supplemented, no transgene. From the text: FIGS. 24(A)-24(B) show small molecule conversion of distinct pluripotent states. ([…] derived from the epiblast of day E5.5 mouse embryos or NOD […] ES cells and were reprogrammed into ICM-like after culture in the mESM+KP/CH. While most colonies differentiated due to withdrawal of bFGF and change of medium (indicated by asterisks), ES-like colonies could be observed after 7-9 days and passaged via trypsinization. Within 2 passages ICM-like ES lines could be stably generated. (B) However, NOD […] which was derived from NOD-ES #43 by withdrawing KP/CH and growing the cells in […] conditions for over 8 passages (FIG. 6F), remained dependent on KP/CH molecules. Factors and growth conditions utilized to facilitate the identity conversion at each step are indicated in parenthesis. The pluripotency state was evaluated and defined based on Oct4 enhancer activity, inhibitor sensitivity (indicated in red or blue accordingly for each line). Identical results were obtained by using PD/CH inhibitor combination or KP alone (data not shown). Work described here further analyzed whether the exogenous stimuli defined in this study could interconvert the two distinct pluripotent states. This work first tested whether infection of previously characterized E5.5 derived 129 […] et al., 2007) with a Klf4 or c-Myc Dox inducible vectors could convert the EpiSCs to an ICM-like pluripotent state. […]

Consider `O=C1Cc2c([nH]c3ccc(Br)cc23)-c2ccccc2N1` [Kenpaullone, 9-bromo-7,12-dihydroindolo[3,2-d][1]benzazepin-6(5H)-one], for which the “replacement of Klf4 during iPS reprogramming” value in experiment [1] is “replaces Klf4 during iPS reprogramming”. Further, in the experiment with NOD-iPS cells, the “Dox-independent growth of pluripotent NOD-iPS cells” value is “supported Dox-independent growth”. For the same compound, in the experiment with NOD ES cells, the “% Chimerism (coat color)” value is 40-90%, the Born chimeras came out at 17 and the “Germline Transmission” value was “yes”. The “conversion of EpiSCs into iPS cells (ICM-like pluripotency)” value in the experiment with 129 EpiSCs is “conversion can be accomplished”.

The values are drawn from US20110088107A1, “COMPOSITIONS AND METHODS FOR DERIVING OR CULTURING PLURIPOTENT CELLS” (priority 2009, published 2011).
